Results taken from patent publication US20240390298A1, “CYCLOHEXYL BETA-HYDROXY ALKYL AMINES AND MEDICAL USES THEREOF” (ATROGI AB, priority 2021, published 2024).
Where a name gives a salt, the structure may show the parent alone.

Experiments:
[1] = tested on: L6-myotubes; assay: Glucose uptake in differentiated L6-myotubes (3H-2-deoxyglucose), compared to isoproterenol; type: cell-based; conditions: agonist 1×10^−5 M, 50 nM 3H-2-deoxyglucose; for Emax at 10 µM: read-out: Biological example 1: glucose uptake, activity compared to that of isoproterenol
Description: (§1) L6-myoblasts were grown in Dulbecco's Modified Eagle's Medium (DMEM) containing 1 g/L glucose supplemented with 10% fetal bovine serum, 2 mM L-Glutamine, 50 U/mL penicillin, 50 μg/mL streptomycin and 10 mM HEPES. Cells were plated at 1×10^5 cells per mL in 24-well plates. After reaching 90% confluence the cells were grown in medium containing 2% FBS for 7 days where upon cells differentiated into myotubes.
Differentiated L6-myotubes were serum-starved overnight in medium containing 0.5% fatty-acid free BSA and stimulated with an agonist, with a final concentration of 1×10^−5 M. After 1 h 40 min the cells were washed with warm glucose free medium or PBS twice and another portion of agonist was added to the glucose free medium. After 20 min the cells were exposed to 50 nM ^3H-2-deoxyglucose for 10 min before washed with ice cold glucose free medium or PBS three times and lysed with 0.2 M NaOH, 400 μL/well, for 1 h at 60° C. The cell lysate was mixed with 4 mL scintillation buffer (Emulsifier Safe, Perkin Elmer) and the radioactivity was detected in a β-counter (Tri-Carb 4810TR, Perkin Elmer). The activity for each compound is compared to that of isoproterenol.

[2] = tested on: L6-myotubes; assay: Measurement of intracellular cAMP levels in differentiated L6 cells (alpha screen cAMP kit), compared to isoproterenol; type: cell-based; conditions: Rattus norvegicus, L6, 0.25 h, agonist 1×10^−5 M, 15 min, read-out: Biological example 2: intracellular cAMP levels, activity compared to that of isoproterenol
Description: as §1
Differentiated cells were serum-starved overnight and stimulated with an agonist, final concentration 1×10^−5 M, for 15 min in stimulation buffer (HBSS supplemented with 1% BSA, 5 mM HEPES and 1 mM IBMX, pH 7.4). The medium was aspirated and 100 μL of 95% EtOH was added to each well of the 24-well plate and cells were kept at −20° C. overnight. The EtOH was allowed to evaporate and 500 μL of lysis buffer (1% BSA, 5 mM HEPES and 0.3% Tween-20, pH 7.4) was added to each well. The plate was kept at −80° C. for 30 min and then at −20° C. until the day of detection when the samples were thawed. Intracellular cAMP levels were detected using an alpha screen cAMP kit (6760635D from Perkin Elmer). The activity for each compound is compared to that of isoproterenol.

SMILES | Biological example 1: glucose uptake, activity compared to that of isoproterenol [1] | Emax at 10 µM [2] [%] | Emax at 10 µM [1] [%]
CO[C@H]1CC[C@@H](CCC(C)(C)NC[C@H](O)c2cncc(F)c2)CC1 [Example 24, (R)-1-(5-Fluoropyridin-3-yl)-2-((4-((1s,4R)-4-methoxycyclohexyl)-2-methylbutan-2-yl)amino)ethan-1-ol dihydrochloride] | + + + | < 25 | –
O[C@@H](CNC[C@H]1CC[C@@H](OCc2ccccc2)CC1)c1cccc(F)c1 [Example 25, (R)-2-((((1s,4S)-4-(Benzyloxy)cyclohexyl)methyl)amino)-1-(3-fluoro-phenyl)ethan-1-ol] | – | < 25 | 25 to 50
O[C@@H](CNC[C@H]1CC[C@@H](O)CC1)c1cccc(F)c1 [Example 26, (1S,4s)-4-((((R)-2-(3-Fluorophenyl)-2-hydroxyethyl)amino)methyl)-cyclohexan-1-ol] | – | < 25 | 25 to 50
O[C@@H](CNC[C@H]1CC[C@@H](OCc2ccccc2)CC1)c1cncc(F)c1 [Example 27, (R)-2-((((1s,4S)-4-(Benzyloxy)cyclohexyl)methyl)amino)-1-(5-fluoropyridin-3-yl)ethan-1-ol] | + + + | < 25 | –
O[C@@H](CNC[C@H]1CC[C@@H](O)CC1)c1cncc(F)c1 [Example 28, (1S,4s)-4-((((R)-2-(5-Fluoropyridin-3-yl)-2-hydroxyethyl)amino)-methyl)cyclohexan-1-ol] | – | < 25 | 25 to 50
O[C@@H](CNC[C@H]1CC[C@H](OCc2ccccc2)CC1)c1cccc(F)c1 [Example 29, (R)-2-((((1r,4R)-4-(Benzyloxy)cyclohexyl)methyl)amino)-1-(3-fluoro-phenyl)ethan-1-ol] | – | < 25 | 25 to 50
O[C@@H](CNC[C@H]1CC[C@H](O)CC1)c1cccc(F)c1 [Example 30, (1R,4r)-4-((((R)-2-(3-Fluorophenyl)-2-hydroxyethyl)amino)methyl)-cyclohexan-1-ol] | – | < 25 | 25 to 50
O[C@@H](CNC[C@H]1CC[C@H](OCc2ccccc2)CC1)c1cncc(F)c1 [Example 31, (R)-2-((((1r,4R)-4-(Benzyloxy)cyclohexyl)methyl)amino)-1-(5-fluoropyridin-3-yl)ethan-1-ol] | – | < 25 | 25 to 50
O[C@@H](CNC[C@H]1CC[C@H](O)CC1)c1cncc(F)c1 [Example 32, (1R,4r)-4-((((R)-2-(5-Fluoropyridin-3-yl)-2-hydroxyethyl)amino)-methyl)cyclohexan-1-ol] | – | < 25 | < 25
CC(C)(NC[C@H](O)c1cccc(F)c1)[C@H]1CC[C@@H](OCc2ccccc2)CC1 [Example 33, (R)-2-((2-((1s,4S)-4-(Benzyloxy)cyclohexyl)propan-2-yl)amino)-1-(3-fluorophenyl)ethan-1-ol] | + + | < 25 | –
CC(C)(NC[C@H](O)c1cccc(F)c1)[C@H]1CC[C@@H](O)CC1 [Example 34, (1S,4s)-4-(2-(((R)-2-(3-Fluorophenyl)-2-hydroxyethyl)amino)propan-2-yl)cyclohexan-1-ol] | + + | < 25 | –
CC(C)(NC[C@H](O)c1cncc(F)c1)[C@H]1CC[C@@H](OCc2ccccc2)CC1 [Example 35, (R)-2-((2-((1s,4S)-4-(Benzyloxy)cyclohexyl)propan-2-yl)amino)-1-(5-fluoropyridin-3-yl)ethan-1-ol] | + + | < 25 | –
CC(C)(NC[C@H](O)c1cncc(F)c1)[C@H]1CC[C@@H](O)CC1 [Example 36, (1S,4s)-4-(2-(((R)-2-(5-Fluoropyridin-3-yl)-2-hydroxyethyl)amino)propan-2-yl)cyclohexan-1-ol] | – | < 25 | 25 to 50
CC(C)(NC[C@H](O)c1cccc(F)c1)[C@H]1CC[C@H](OCc2ccccc2)CC1 [Example 37, (R)-2-((2-((1r,4R)-4-(Benzyloxy)cyclohexyl)propan-2-yl)amino)-1-(3-fluoro-phenyl)ethan-1-ol] | + + | < 25 | –
CC(C)(NC[C@H](O)c1cccc(F)c1)[C@H]1CC[C@H](O)CC1 [Example 38, (1R,4r)-4-(2-(((R)-2-(3-Fluorophenyl)-2-hydroxyethyl)amino)propan-2-yl)cyclohexan-1-ol] | + + | < 25 | –
CC(C)(NC[C@H](O)c1cncc(F)c1)[C@H]1CC[C@H](OCc2ccccc2)CC1 [Example 39, (R)-2-((2-((1r,4R)-4-(Benzyloxy)cyclohexyl)propan-2-yl)amino)-1-(5-fluoropyridin-3-yl)ethan-1-ol] | + + | < 25 | –
CC(C)(NC[C@H](O)c1cncc(F)c1)[C@H]1CC[C@H](O)CC1 [Example 40, (1R,4r)-4-(2-(((R)-2-(5-Fluoropyridin-3-yl)-2-hydroxyethyl)amino)propan-2-yl)cyclohexan-1-ol] | + + | < 25 | –
O[C@@H](CNCC[C@H]1CC[C@@H](OCc2ccccc2)CC1)c1cccc(F)c1 [Example 41, (R)-2-((2-((1s,4S)-4-(Benzyloxy)cyclohexyl)ethyl)amino)-1-(3-fluoro-phenyl)ethan-1-ol] | + + | < 25 | –
O[C@@H](CNCC[C@H]1CC[C@@H](O)CC1)c1cccc(F)c1 [Example 42, (1S,4s)-4-(2-(((R)-2-(3-Fluorophenyl)-2-hydroxyethyl)amino)ethyl)-cyclohexan-1-ol] | + + | < 25 | –
O[C@@H](CNCC[C@H]1CC[C@@H](O)CC1)c1cncc(F)c1 [Example 44, (1S,4s)-4-(2-(((R)-2-(5-Fluoropyridin-3-yl)-2-hydroxyethyl)amino)-ethyl)cyclohexan-1-ol] | – | < 25 | 25 to 50
O[C@@H](CNCC[C@H]1CC[C@H](OCc2ccccc2)CC1)c1cccc(F)c1 [Example 45, (R)-2-((2-((1r,4R)-4-(Benzyloxy)cyclohexyl)ethyl)amino)-1-(3-fluoro-phenyl)ethan-1-ol] | – | < 25 | 25 to 50
O[C@@H](CNCC[C@H]1CC[C@H](O)CC1)c1cccc(F)c1 [Example 46, (1R,4r)-4-(2-(((R)-2-(3-Fluorophenyl)-2-hydroxyethyl)amino)ethyl)-cyclohexan-1-ol] | – | < 25 | 25 to 50
O[C@@H](CNCC[C@H]1CC[C@H](OCc2ccccc2)CC1)c1cncc(F)c1 [Example 47, (R)-2-((2-((1r,4R)-4-(Benzyloxy)cyclohexyl)ethyl)amino)-1-(5-fluoropyridin-3-yl)ethan-1-ol] | – | < 25 | < 25
O[C@@H](CNCC[C@H]1CC[C@H](O)CC1)c1cncc(F)c1 [Example 48, (1R,4r)-4-(2-(((R)-2-(5-Fluoropyridin-3-yl)-2-hydroxyethyl)amino)-ethyl)cyclohexan-1-ol] | – | < 25 | 25 to 50
CC(C)(C[C@H]1CC[C@@H](O)CC1)NC[C@H](O)c1cccc(F)c1.Cl [Example 49, (1S,4s)-4-(2-(((R)-2-(3-Fluorophenyl)-2-hydroxyethyl)amino)-2-methylpropyl)cyclohexan-1-ol hydrochloride] | + + | < 25 | –
CC(C)(C[C@H]1CC[C@@H](O)CC1)NC[C@H](O)c1cncc(F)c1.Cl [Example 50, (1S,4s)-4-(2-(((R)-2-(5-Fluoropyridin-3-yl)-2-hydroxyethyl)amino)-2-methylpropyl)cyclohexan-1-ol hydrochloride] | + + + | < 25 | –
CC(C)(C[C@H]1CC[C@H](O)CC1)NC[C@H](O)c1cccc(F)c1.Cl [Example 51, (1R,4r)-4-(2-(((R)-2-(3-Fluorophenyl)-2-hydroxyethyl)amino)-2-methylpropyl)cyclohexan-1-ol hydrochloride] | + + + | < 25 | –
CC(C)(C[C@H]1CC[C@H](O)CC1)NC[C@H](O)c1cncc(F)c1 [Example 52, (1R,4r)-4-(2-(((R)-2-(5-Fluoropyridin-3-yl)-2-hydroxyethyl)amino)-2-methylpropyl)cyclohexan-1-ol] | + + + | < 25 | –
